{"source": "ChEMBL document CHEMBL5726429", "about": "“Inhibitors of lysine specific demethylase-1” (2017)", "target": "Lysine-specific histone demethylase 1A (Homo sapiens, UniProt O60341)", "assay": "In Vitro Enzyme Inhibition Assay: The enzymatic assay of LSD1 activity is based on Time Resolved-Fluorescence Resonance Energy Transfer (TR-FRET) detection. The inhibitory properties of compounds to LSD1 were determined in 384-well plate format under the following reaction conditions: 0.1-0.5 nM LSD1, 50 nM H3K4mel-biotin labeled peptide (Anaspec cat # 64355), 2 μM FAD in assay buffer of 50 mM …"}
{"smiles": "Cn1c(N2CCC(N)CC2)nc(-c2ccc(C#N)c(F)c2)c(Cl)c1=O", "values": [{"measurement": "IC50", "result": "< 100", "unit": "nM"}]}
